# According to US12285034B2, “Human and non-human animal use of microbial anaplerotic oil” (HELIAE DEVELOPMENT, LLC, priority 2017, dated 2025):
# Read-outs that look alike come from different tables or passages of the source.
# Legend:
# [1] = tested on: Aurantiochytrium acetophilum HS399
# Protocol: Respective Erlenmeyer flasks (250 mL) can be inoculated (1% v/v) in triplicates with a 24 hour (h) old culture of A. acetophilum HS399 and incubated in an orbital shaker at 180 rpm and 27° C.
# In this implementation, the respective Erlenmeyer flasks contain 100 mL of a medium supplemented with (g/L): dextrose (50), ammonium acetate (2.3), NaCl (12.5), MgSO4 7H2O (2.5), KH2PO4 (0.5), KCl (0.5) and CaCl2 (0.1). This medium also contains trace element solution (5 ml/L) and vitamin solution (1 ml/L). The trace element solution contains (g/L): EDTA di-sodium salt (6), FeCl3 6H2O (0.29), […] (6.84), MnCl2 4H2O (0.86), ZnCl2 (0.06), CoCl2 6H2O (0.026), NiSO4 6H2O (0.052), CuSO4 5H2O (0.002), Na2MoO4H2O (0.005). The vitamin solution contains (mg/L): thiamine (100), biotin (0.5) and cyanocobalamin (0.5). All culture materials can be autoclaved (121° C., 15 min) and media can be filter sterilized before use. […] Daily samples can be collected to analyze the cell dry weight, residual glucose, culture pH, lipid and fatty acid composition of the cultures. Cell dry weights are analyzed by vacuum filtration (0.2 μm) and washed with a solution of ammonium bicarbonate. Residual glucose is analyzed using a colorimetric method based on glucose […] activity. Biomass for lipid analysis can be centrifuged and washed using purified water. The washed biomass can be freeze dried. Total lipids are analyzed using the Folch method (AOAC 996.06) and the FAMES are analyzed by gas chromatography using nonadecanoic (C19:0) acid as an internal standard.
# [2] = tested on: Aurantiochytrium acetophilum HS399; format: cell-based
# Protocol: In this implementation, initially (24 h incubation), the culture pH may not be controlled, and the pH of the respective treatments can drift from 7.5 to 8. After 24 h incubation, the desired pH set point of each treatment can be set using the respective organic acids. […] The cultures are aerated at 1.4 vvm and maintained at 27° C. under axenic conditions. […] This medium also contains a trace element solution (5 ml/L) and a vitamin solution (1 ml/L). The trace element solution can contain (g/L): […] […] Residual glucose is analyzed from culture supernatant (5000 g; 5 min) using a colorimetric method based on glucose […] activity. Residual acetate and propionate are analyzed by HPLC using external standard.
# [3] = tested on: Aurantiochytrium acetophilum HS399; test: Model of intracellular (cytosolic) propionate, Henderson-Hasselbalch (Example 4)
# Description: In one implementation, the change in pH may be calculated with the following equation derived from the Henderson and Hasselbalch equation: […]
# [4] = tested on: Aurantiochytrium acetophilum HS399; remark: listed apart in the source
# Protocol: In one implementation, a 250 mL Erlenmeyer flask can be used to cultivate A. acetophilum HS399.
# In one implementation, a 250 mL Erlenmeyer flask can be used to cultivate A. acetophilum HS399. […] Cell dry weights may be analyzed using a filtration method. Ammonia can be measured using a Cedex bio-analyzer (Roche). […] The fatty acid profile of the biomass can be analyzed using gas chromatography.
# [5] = tested on: Aurantiochytrium acetophilum HS399; test: Single vs two-stage fermentation with propionic acid (Example 12); format: cell-based; conditions: propionic acid fed
# Description: Further, in this implementation, during the lipid phase, no additional nitrogen is fed, and the cell accumulated the lipids. In the single stage mode, half of the nitrogen (2.5 g/L NH3) can be batch fed, while the other half (2.5 g/L NH3) can be fed along with the glucose until the end of the fermentation. In this implementation, both treatments receive substantially the same nutrients; however, the single stage mode grows and accumulates lipids in a coordinated way throughout the fermentation. The single stage system can be characterized by an early lipid accumulation. […] Each of the four treatments can be cultured in duplicate (n=2) fermenters. […] As illustrated, propionic acid slows down the growth on both systems, but the two-stage system provides a better growth rate than the single stage system in the presence of propionate. […] This implementation illustrates that the traditional two stage approach to lipid accumulation may be preferable to produce OCFAs.
# Y. lipolytica = test: Model of cytoplasmic propionate in Yarrowia lipolytica; conditions: 2 g/L d propionic fed, pH 3
# Description: In this aspect, while the propionate and free proton form enters the microalgae cell through a monocarboxylic symport structure, propionic acid is membrane permeable and may be diffused directly into the microalgae cell. Therefore, in this aspect, the uptake of propionate can be controlled by the cell, and the uptake of propionic acid may not be controlled by the cell. As an example, the uncontrolled uptake of propionic acid presumably lowers the internal Aurantiochytrium cell pH; in turn, the cell attempts to maintain its pH homeostasis by pumping protons out of the cell. […] In one implementation, the change in pH may be calculated with the following equation derived from the Henderson and Hasselbalch equation: […]
# In these implementations, the results illustrate that growth of the Y. lipolytica may not be affected by up to 2 g/L d propionic fed despite the low pH (3) present.
structure (smiles),measurement,setting,value
"CCC(=O)O [Propionate, propionic acid]",OCFA Productivity,[1],0.81 ± 0.06 g/L/day
same,concentration strongly inhibitory to growth,[1],10000 µg/mL
same,growth inhibitory concentration,[1],3 g/L
same,substantially lethal residual (extracellular) concentration,[1]; pH of 6,~15 g/L
same,OCFA,"[1]; propionate 10 g/L, 68 h",63.1 ± 0.7 % TFA
same,Total Fatty Acids,"[1]; propionate 10 g/L, 68 h",42.8 ± 0.9 % DW
same,Total Lipids,"[1]; propionate 10 g/L, 68 h",55.3 ± 0.6 % DW
same,OCFA,"[1]; propionate 10 g/L, 68 h, listed as propionate",63 % TFA
same,Propionate deposition,[1]; propionate printed 1100 g/L,6.9 ± 0.5%
same,"effect on growth (cell dry weight, glucose)",[2],highly growth inhibitory
same,Consumed propionate,[2]; pH 5 set point,2.3 ± 0.2 g/L
same,Propionic Acid Deposited,[2]; pH 5 set point,30.9 ± 2.0%
same,Consumed propionate,[2]; pH 6 set point,2.4 ± 0.1 g/L
same,Propionic Acid Deposited,[2]; pH 6 set point,40.3 ± 1.6%
same,effect on growth (cell dry weight),[2]; pH 7,not growth inhibitory
same,Consumed propionate,[2]; pH 7 set point,1.0 ± 0.1 g/L
same,Propionic Acid Deposited,[2]; pH 7 set point,24.7 ± 1.0%
same,Total Fatty Acid,"[2]; propionic acid titrant, pH 5",59.2 ± 3.1 % CDW
same,Total Lipids,"[2]; propionic acid titrant, pH 5",75.0 ± 3.0 % CDW
same,Total Fatty Acid,"[2]; propionic acid titrant, pH 6",63.4 ± 0.3 % CDW
same,Total Lipids,"[2]; propionic acid titrant, pH 6",79.5 ± 1.5 % CDW
same,OCFA,"[2]; propionic acid titrant, pH 7",6.3 % TFA
same,Total Fatty Acid,"[2]; propionic acid titrant, pH 7",70.3 ± 2.8 % CDW
same,Total Lipids,"[2]; propionic acid titrant, pH 7",87.5 ± 1.5 % CDW
same,intracellular propionate concentration,"[3]; from 1 g/L, pH 7 (growth inhibitory)",1 g/L
same,intracellular propionate concentration,"[3]; from ~15 g/L residual, pH 6 (lethal)",176 g/L
same,"lethal threshold, Cytosolic Propionate","[3]; initial propionate 20 g/L, pH 6.4",97.7 g/L
same,D1-D4 Average Internal Propionic Acid (Theoretical Values),[3]; pH 5 set point,56.70 g/L
same,D1-D4 Average Internal Propionic Acid (Theoretical Values),[3]; pH 6 set point,4.18 g/L
same,D1-D4 Average Internal Propionic Acid (Theoretical Values),[3]; pH 7 set point,0.13 g/L
same,"lethal threshold, Cytosolic Propionate","[3]; pH drift approach, pH 5.3, 2.3 g/L, listed as Propionic acid",107.5 ± 3.5 g/L
same,"lethal threshold, Cytosolic Propionate","[3]; pH drift approach, pH 5.3, 2.3 g/L, listed as propionate",107.5 g/L
same,Propionate deposition,[4]; 0 + 3 g/L fed in lipid phase,58.8 ± 1.9%
same,Propionate deposition,"[4]; 0 + 3 g/L fed in lipid phase, listed as propionate",58.8%
same,Propionate deposition,[4]; 3 g/L fed in growth phase,53.0 ± 1.0%
same,Propionate deposition,"[4]; 3 g/L fed in growth phase, listed as propionate",53%
same,Productivity,"[5]; single stage, 96 h",20.7 g/L/day
same,Biomass Yield,"[5]; single stage, batch time 96 h",82.5 g/L
same,Productivity,"[5]; two stage, 89 h",34.1 g/L/day
same,Biomass Yield,"[5]; two stage, batch time 89 h",125.8 g/L
same,accumulation of cytoplasmic propionate,Y. lipolytica,328 g/L
